The experiment has as its target AMPK. Nature of the experiment: AMPK activation, enzyme-linked immunosorbent assay. It counts as biochemical. Conditions: Table 2, ELISA. The procedure: Compounds 1-54 were assayed for their ability to activate AMPK using an enzyme-linked immunosorbent assay.
Compounds 55-62 of Table 1 were assayed for their ability to activate AMPK using an enzyme-linked immunosorbent assay.
Compounds 63-66 of Table 1 were assayed for their ability to activate AMPK using an enzyme-linked immunosorbent assay.
Compounds 67-71 of Table 1 were assayed for their ability to activate AMPK using an enzyme-linked immunosorbent assay.
Compound 72 of Table 1 was assayed for its ability to activate AMPK using an enzyme-linked immunosorbent assay.
(ELISA stands for enzyme-linked immunosorbent assay.)

The structures appear in SMILES notation.

For orientation: EC50 means the concentration needed to bring the measured effect to its halfway point. The low end stands for an effect from little substance, the high end for a need for much substance. `N#Cc1ccc(CN2CCC(NC(=O)c3ccc4[nH]c5c(c4c3)CN(C(=O)OCc3ccccc3)CC5)CC2)cc1` [Compound 1, benzyl 8-(1-(4-cyanobenzyl)piperidin-4-ylcarbamoyl)-3,4-dihydro-1H-pyrido[4,3-b]indole-2(5H)-carboxylate]: the EC50 is 1000 to 5000 nM.

`O=C(NC1CCN(Cc2ccccc2)CC1)c1ccc2[nH]c3c(c2c1)CN(C(=O)OCc1ccccc1)CC3` [Compound 2, benzyl 8-(1-(4-benzyl)piperidin-4-ylcarbamoyl)-3,4-dihydro-1H-pyrido[4,3-b]indole-2(5H)-carboxylate] returned an EC50 of 10000 to 50000 nM.

`CC(C)(C)OC(=O)N1CCC(NC(=O)c2ccc3[nH]c4c(c3c2)CN(C(=O)OCc2ccccc2)CC4)CC1` [Compound 3, benzyl 8-(1-(tert-butoxy-carbonyl)piperidin-4-ylcarbamoyl)-3,4-dihydro-1H-pyrido[4,3-b]indole-2(5H)-carboxylate]: the EC50 was 10000 to 50000 nM.

Molecule `N#Cc1ccc(CN2CCC(NC(=O)c3ccc4[nH]c5c(c4c3)CN(Cc3ccccc3)CC5)CC2)cc1` [Compound 4, 2-benzyl-N-(1-(4-cyano-benzyl)piperidin-4-yl)-2,3,4,5-tetrahydro-1H-pyrido[4,3-b]indole-8-carboxamide] had an EC50 of 1000 to 5000 nM.

Turning to `O=C(NC1CCN(Cc2ccc(C(F)(F)F)cc2)CC1)c1ccc2[nH]c3c(c2c1)CN(Cc1ccccc1)CC3` [Compound 5, 2-benzyl-N-(1-(4-trifluoromethylbenzyl)piperidin-4-yl)-2,3,4,5-tetrahydro-1H-pyrido [4,3-b]indole-8-carboxamide], the EC50 was 1000 to 5000 nM.

`CC(C)(C)OC(=O)N1CCC(NC(=O)c2ccc3[nH]c4c(c3c2)CN(Cc2ccc(C(F)(F)F)cc2)CC4)CC1` [Compound 6, tert-butyl 4-(2-(4-(trifluoromethyl)benzyl)-2,3,4,5-tetrahydro-1H-pyrido[4,3-b]indole-8-carboxamido)piperidine-1-carboxylate]: the EC50 lay in the range of 500 to 1000 nM.

As for `O=C(NC1CCN(Cc2ccncc2)CC1)c1ccc2[nH]c3c(c2c1)CN(Cc1ccccc1)CC3` [Compound 7, 2-benzyl-N-(1-(pyridin-4-ylmethyl)piperidin-4-yl)-2,3,4,5-tetrahydro-1H-pyrido[4,3-b]indole-8-carboxamide], the EC50 was 5000 to 10000 nM.

In turn, `O=C(NC1CCN(Cc2cccnc2)CC1)c1ccc2[nH]c3c(c2c1)CN(Cc1ccc(F)cc1)CC3` [Compound 8, 2-(4-fluorobenzyl)-N-(1-(pyridin-3-ylmethyl)piperidin-4-yl)-2,3,4,5-tetrahydro-1H-pyrido [4,3-b]indole-8-carboxamide] gave an EC50 of 5000 to 10000 nM.

Molecule `N#Cc1ccc(CN2CCC(NC(=O)c3ccc4[nH]c5c(c4c3)CN(Cc3ccc(F)cc3)CC5)CC2)cc1` [Compound 9, N-(1-(4-cyanobenzyl)piperidin-4-yl)-2-(4-fluorobenzyl)-2,3,4,5-tetrahydro-1H-pyrido [4,3-b]indole-8-carboxamide] yielded an EC50 of less than 500 nM.

In turn, `O=C(NC1CCN(Cc2ccc(C(F)(F)F)cc2)CC1)c1ccc2[nH]c3c(c2c1)CN(Cc1ccc(F)cc1)CC3` [Compound 10, N-(1-(4-trifluoromethyl-benzyl)piperidin-4-yl)-2-(4-fluorobenzyl)-2,3,4,5-tetrahydro-1H-pyrido[4,3-b]indole-8-carboxamide] registered an EC50 of 500 to 1000 nM.

In turn, `O=C(NC1CCN(Cc2cccnc2)CC1)c1ccc2[nH]c3c(c2c1)CN(Cc1ccc(C(F)(F)F)cc1)CC3` [Compound 11, N-(1-(pyridin-3-ylmethyl)piperidin-4-yl)-2-(4-(trifluoromethyl)benzyl)-2,3,4,5-tetrahydro-1H-pyrido[4,3-b]indole-8-carboxamide] gave an EC50 of less than 500 nM.

On to `N#Cc1ccc(CN2CCC(NC(=O)c3ccc4[nH]c5c(c4c3)CN(Cc3ccc(C(F)(F)F)cc3)CC5)CC2)cc1` [Compound 12, N-(1-(4-cyanobenzyl)piperidin-4-yl)-2-(4-(trifluoromethyl)benzyl)-2,3,4,5-tetrahydro-1H-pyrido[4,3-b]indole-8-carboxamide], for which the EC50 is less than 500 nM.

The molecule `O=C(NC1CCN(Cc2ccc(C(F)(F)F)cc2)CC1)c1ccc2[nH]c3c(c2c1)CN(Cc1ccc(C(F)(F)F)cc1)CC3` [Compound 13, N-(1-(4-trifluoromethyl-benzyl)piperidin-4-yl)-2-(4-(trifluoromethyl)benzyl)-2,3,4,5-tetrahydro-1H-pyrido[4,3-b]indole-8-carboxamide] yielded an EC50 of less than 500 nM.

Consider `O=C(NC1CCN(CCc2ccccc2)CC1)c1ccc2[nH]c3c(c2c1)CN(Cc1ccc(C(F)(F)F)cc1)CC3` [Compound 14, N-(1-phenethyl-piperidin-4-yl)-2-(4-(trifluoromethyl)benzyl)-2,3,4,5-tetrahydro-1H-pyrido[4,3-b]indole-8-carboxamide], for which the EC50 is less than 500 nM.

The molecule `O=C(NC1CCN(c2ccc(F)cc2)CC1)c1ccc2[nH]c3c(c2c1)CN(Cc1ccc(C(F)(F)F)cc1)CC3` [Compound 15, N-(1-(4-fluorophenyl)piperidin-4-yl)-2-(4-(trifluoromethyl)benzyl)-2,3,4,5-tetrahydro-1H-pyrido[4,3-b]indole-8-carboxamide] gave an EC50 of less than 500 nM.

Turning to `Cn1c2c(c3cc(C(=O)NC4CCN(Cc5ccc(C#N)cc5)CC4)ccc31)CN(Cc1ccc(C(F)(F)F)cc1)CC2` [Compound 16, N-(1-(4-cyanobenzyl)piperidin-4-yl)-5-methyl-2-(4-(trifluoromethyl)benzyl)-2,3,4,5-tetrahydro-1H-pyrido[4,3-b]indole-8-carboxamide], the EC50 is less than 500 nM.

In turn, `Cn1c2c(c3cc(C(=O)NC4CCN(Cc5ccc(C(F)(F)F)cc5)CC4)ccc31)CN(Cc1ccc(C(F)(F)F)cc1)CC2` [Compound 17, N-(1-(4-trifluoromethyl-benzyl)piperidin-4-yl)-5-methyl-2-(4-(trifluoro-methyl)benzyl)-2,3,4,5-tetrahydro-1H-pyrido [4,3-b]indole-8-carboxamide] returned an EC50 of 500 to 1000 nM.

For `Cn1c2c(c3cc(C(=O)NC4CCN(Cc5cccnc5)CC4)ccc31)CN(Cc1ccc(C(F)(F)F)cc1)CC2` [Compound 18, 5-methyl-N-(1-(pyridin-3-ylmethyl)piperidin-4-yl)-2-(4-(trifluoromethyl)benzyl)-2,3,4,5-tetrahydro-1H-pyrido[4,3-b]indole-8-carboxamide], the EC50 fell in the range of 1000 to 5000 nM.

The molecule `O=C(NC1CCN(Cc2ccccc2)CC1)c1ccc2[nH]c3c(c2c1)CN(S(=O)(=O)c1ccc(C(F)(F)F)cc1)CC3` [Compound 19, N-(1-benzylpiperidin-4-yl)-2-(4-(trifluoromethyl)phenylsulfonyl)-2,3,4,5-tetrahydro-1H-pyrido [4,3-b]indole-8-carboxamide] showed an EC50 of more than 100000 nM.

For the molecule `CC(=O)n1c2c(c3cc(C(=O)NC4CCN(Cc5cccnc5)CC4)ccc31)CN(Cc1ccc(C(F)(F)F)cc1)CC2` [Compound 20, 5-acetyl-N-(1-(pyridin-3-ylmethyl)piperidin-4-yl)-2-(4-(trifluoromethyl)benzyl)-2,3,4,5-tetrahydro-1H-pyrido[4,3-b]indole-8-carboxamide], the EC50 is 1000 to 5000 nM.

Molecule `N#Cc1ccc(S(=O)(=O)N2CCC(NC(=O)c3ccc4[nH]c5c(c4c3)CN(Cc3ccc(C(F)(F)F)cc3)CC5)CC2)cc1` [Compound 21, N-(1-(4-cyanophenyl-sulfonyl)piperidin-4-yl)-2-(4-(trifluoromethyl)benzyl)-2,3,4,5-tetrahydro-1H-pyrido[4,3-b]indole-8-carboxamide] gave an EC50 of 500 to 1000 nM.

Values taken from patent US8895578B2, “Carboxamide, sulfonamide and amine compounds and methods for using the same” (Rigel Pharmaceuticals, Inc., priority 2007, dated 2014).
